Consider seven molecules from PubChem BioAssay AID1259411 (Chemical Carcinogenesis Research Information System (CCRIS), 2018).

The series has as its system rodent carcinogenicity bioassays, tumor incidence. Put plainly: CCRIS carcinogenicity studies. An outline of the steps: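 Archive of carcinogenicity, mutagenicity, tumor promotion and tumor inhibition results drawn from journals, NCI reports and other sources, expert-reviewed; covers 1985-2011 and is no longer updated.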

Calls of active or inactive are those of the source. The rule behind the calls is not given here.

For the molecule `CC1=CC(O)=NS(=O)(=O)O1`, the carcinogen call is “inactive; negative” (Species: MOUSE, Strain/Sex: SWISS/FEMALE, Route: ORAL, Dose: 0, 3000, 10000, 30000 PPM IN DIET FOR 80 WK (STUDY DURATION: 80 WK), Dose: 0, 3000, 10000, 30000 PPM IN DIET FOR 80 WK (STUDY DURATION: 80 WK)); “inactive; negative” (Species: MOUSE, Strain/Sex: SWISS/MALE, Route: ORAL, Dose: 0, 3000, 10000, 30000 PPM IN DIET FOR 80 WK (STUDY DURATION: 80 WK), Dose: 0, 3000, 10000, 30000 PPM IN DIET FOR 80 WK (STUDY DURATION: 80 WK)); “inactive; negative” (Species: RAT, Strain/Sex: CPB-WK SPF/FEMALE, Route: ORAL, Dose: 0, 3000, 10000, 30000 PPM IN DIET FOR 113 WK (STUDY DURATION: 113 WK), Dose: 0, 3000, 10000, 30000 PPM IN DIET FOR 113 WK (STUDY DURATION: 113 WK)); “inactive; negative” (Species: RAT, Strain/Sex: CPB-WK SPF/MALE, Route: ORAL, Dose: 0, 3000, 10000, 30000 PPM IN DIET FOR 120 WK (STUDY DURATION: 120 WK), Dose: 0, 3000, 10000, 30000 PPM IN DIET FOR 120 WK (STUDY DURATION: 120 WK)).

`COC(=O)C1=CCCN(N=O)C1`: the carcinogen call (Species: RAT, Strain/Sex: F344/MALE, Route: ORAL, Dose: 0, 20 PPM IN DRINKING WATER FOR DURATION OF STUDY (TOTAL DOSE: 0; 4.1 MMOL/KG) (STUDY DURATION: 128 WK), Dose: 0, 20 PPM IN DRINKING WATER FOR DURATION OF STUDY (TOTAL DOSE: 0; 4.1 MMOL/KG) (STUDY DURATION: 128 WK), Tumor Site: Type of Lesion: EXOCRINE PANCREAS: ACINAR ADENOMA) was “active; positive”.

In the case of `O=C(O)c1cc2ccccc2c(N=Nc2ccccc2)c1O`, the carcinogen call (Species: MOUSE, Strain/Sex: ICR/FEMALE, Route: DERMAL, Dose: 0, 1 MG IN 0.1 ML DISTILLED WATER 2/WK FOR A MEAN TOTAL DOSE OF 122.2 MG (STUDY DURATION: 18 MO)) is “inactive; negative” and the carcinogen call (Species: MOUSE, Strain/Sex: ICR/MALE, Route: DERMAL, Dose: 0, 1 MG IN 0.1 ML DISTILLED WATER 2/WK FOR A MEAN TOTAL DOSE OF 122.2 MG (STUDY DURATION: 18 MO)) is “inactive; negative”.

Regarding `CCOC(=O)C(C(=O)OCC)=C(NO)c1ccccc1`, the carcinogen call by setting is: (Species: Mouse, Strain/Sex: Swiss Albino/Female (60/sex/group), Route: Oral, Dose: 0, 10, 30, 100 ppm in feed for 18 mo, Dose: 0, 10, 30, 100 ppm in feed for 18 mo) “inactive; negative; purity 97%”; (Species: Mouse, Strain/Sex: Swiss Albino/Male (60/sex/group), Route: Oral, Dose: 0, 10, 30, 100 ppm in feed for 18 mo, Dose: 0, 10, 30, 100 ppm in feed for 18 mo, Tumor Site: Type of Lesion: Liver: Hepatocellular adenoma (2/47, 4/48, 3/49, 5/53), Hepatocellular carcinoma (0/47, 0/48, 2/49, 4/53), Combined (2/4, Tumor Site: Type of Lesion: Liver: Hepatocellular adenoma (2/47, 4/48, 3/49, 5/53), Hepatocellular carcinoma (0/47, 0/48, 2/49, 4/53), Combined (2/4) “active; positive (statistically significant trend but not incidence); purity 97%”; (Species: Rat, Strain/Sex: Sprague-Dawley /Female (70/sex/group in dosed animals; 105 controls/sex), Route: Oral, Dose: 0, 60, 190, 600 ppm in feed for 104 wks, Dose: 0, 60, 190, 600 ppm in feed for 104 wks) “inactive; negative: purity 98.5%; liver: nonneoplastic liver lesions (eosinophilic cellula”; (Species: Rat, Strain/Sex: Sprague-Dawley /Male (70/sex/group in dosed animals; 105 controls/sex), Route: Oral, Dose: 0, 60, 190, 600 ppm in feed for 104 wks, Dose: 0, 60, 190, 600 ppm in feed for 104 wks) “inactive; negative: purity 98.5%; liver: nonneoplastic liver lesions (eosinophilic cellula”.

In the case of `C[C@]12CC[C@@H]3c4ccc(O)cc4CC[C@H]3[C@@H]1CCC2=O`, the carcinogen call runs as follows: (Species: HAMSTER, Route: SUBCUTANEOUS, SUBCUTANEOUS IMPLANT, Tumor Site: Type of Lesion: KIDNEY) “active; positive”; (Species: HAMSTER, Strain/Sex: SYRIAN/MALE, Route: SUBCUTANEOUS IMPLANT, Dose: 0, 20 MG PELLET, SINGLE DOSE, Tumor Site: Type of Lesion: KIDNEY) “active; positive”; (Species: HAMSTER, Strain/Sex: SYRIAN/MALE, Route: SUBCUTANEOUS IMPLANT, Dose: 0, 20 MG IN PELLETS IMPLANTED EVERY 2.5 MO FOR 9 MO (STUDY DURATION: 9 MO), Tumor Site: Type of Lesion: KIDNEY: TUMOR) “active; positive”; (Species: HAMSTER, Strain/Sex: SYRIAN/MALE, Route: SUBCUTANEOUS, Tumor Site: Type of Lesion: KIDNEY, PITUITARY GLAND: ADENOMA) “active; positive”; (Species: HUMAN, Tumor Site: Type of Lesion: UTERUS (ENDOMETRIUM)) “active; positive”; (Species: MOUSE, Route: ORAL, SUBCUTANEOUS, DERMAL, SUBCUTANEOUS IMPLANT, Tumor Site: Type of Lesion: MAMMARY GLAND) “active; positive”. The carcinogen call (Species: MOUSE, Strain/Sex: C3H, C3HE(MTV-)/MALE, Route: ORAL, Dose: 125, 2000 UG/L IN DRINKING WATER, Tumor Site: Type of Lesion: MAMMARY GLAND) is “active; positive”; the carcinogen call (Species: MOUSE, Strain/Sex: C3R3(MTV+)/MALE, Route: DIET, Dose: 0, 0.06, 0.6, 6 UG/D, Tumor Site: Type of Lesion: MAMMARY GLAND) is “active; positive”; the carcinogen call (Species: MOUSE, Strain/Sex: GRS/AFIB(MTV+)/FEMALE, Route: ORAL, Dose: 0, 0.5 UG/ML FOR 14-25 WK IN DRINKING WATER, Tumor Site: Type of Lesion: UTERUS) is “active; positive”; the carcinogen call (Species: RAT, Route: SUBCUTANEOUS, SUBCUTANEOUS IMPLANT, Tumor Site: Type of Lesion: ADRENAL GLAND, KIDNEY, MAMMARY GLAND, PITUITARY GLAND, URINARY BLADDER, Tumor Site: Type of Lesion: ADRENAL GLAND, KIDNEY, MAMMARY GLAND, PITUITARY GLAND, URINARY BLADDER) is “active; positive”; the carcinogen call (Species: RAT, Strain/Sex: AUGUST/MALE,FEMALE, Route: SUBCUTANEOUS IMPLANT, Dose: 8-12 MG PELLET, SINGLE DOSE, Tumor Site: Type of Lesion: MAMMARY GLAND) is “active; positive”; the carcinogen call (Species: RAT, Strain/Sex: AXC/MALE,FEMALE, Route: SUBCUTANEOUS IMPLANT, Dose: 8-12 MG PELLET, SINGLE DOSE, Tumor Site: Type of Lesion: MAMMARY GLAND) is “active; positive”. Moreover, the carcinogen call (Species: RAT, Strain/Sex: COPENHAGEN/MALE,FEMALE, Route: SUBCUTANEOUS IMPLANT, Dose: 8-12 MG PELLET, SINGLE DOSE, Tumor Site: Type of Lesion: URINARY BLADDER) is “active; positive” and the carcinogen call (Species: RAT, Strain/Sex: F344/MALE,FEMALE, Route: SUBCUTANEOUS IMPLANT, Dose: 8-12 MG PELLET, SINGLE DOSE, Tumor Site: Type of Lesion: MAMMARY GLAND) was “active; positive”.

As for `C[C@@]12CCC[C@H]1[C@@H]1CCc3cc(O)ccc3[C@H]1CC2`, the carcinogen call (Species: HAMSTER, Strain/Sex: SYRIAN/MALE, Route: SUBCUTANEOUS IMPLANT, Dose: 0, 20 MG IN PELLETS IMPLANTED EVERY 2.5 MO FOR 9 MO (STUDY DURATION: 9 MO)) is “inactive; negative”.

For the molecule `Cc1ccc2cc3c(ccc4ccccc43)c3c2c1C=C3`, the carcinogen call (Species: MOUSE, Strain/Sex: SWISS/FEMALE, Route: DERMAL, Dose: 0.2 UMOL IN 33.4 µL ACETONE TO SHAVED DORSAL SKIN 2/WK FOR 20 WK (STUDY DURATION: 52 WK), Tumor Site: Type of Lesion: SKIN: PAPILLOMA, KERATOACANTHOMA, EPIDERMAL CARCINOMA) is “active; positive”.
